Test results from publication PMC6669887 (Analytical chemistry, 2019).

Test system: A2AR
Test: Affinity MS assay/screen with purified immobilized receptor
Assay type: binding
Conditions: 480-mix cocktails

CCNC(=O)[C@H]1O[C@@H](n2cnc3c(NCC(c4ccccc4)c4ccccc4)nc(C(=O)NCCNC(=O)NC4CCN(c5ccccn5)CC4)nc32)[C@H](O)[C@@H]1O [UK-432,097]
hit detection/selection in 480-mix screens: detected in all cocktails
